Source: patent publication US12616697B2, “Methods of treatment with myosin modulator” (MyoKardia, Inc., priority 2020, dated 2026)

System: subjects with symptomatic non-obstructive HCM (nHCM)
Assay: […]-HCM Phase 2 randomized, double-blind, placebo-controlled, concentration-guided study
Type: in vivo, human
Set-up: Overall KCCQ Summary Score, mean change / Clinical KCCQ Summary Score, mean change / Overall KCCQ Summary Score / Clinical KCCQ Summary Score: scale not given here
Settings: for LVEF, mean change: Week 16
Text: This is a Phase 2 trial designed to assess the safety and tolerability of a range of exposures over 16 weeks of treatment in subjects with symptomatic, non-obstructive HCM. All study subjects were required to be diagnosed with non-obstructive HCM, with left ventricular wall thickness either ≥15 mm or ≥13 mm with a family history of HCM, LVEF≥55%, NYHA classifications of Class II or III, and NT-proBNP levels of greater than 300 pg/mL at rest. Baseline characteristics, such as age, weight, gender, pathogenic mutation status, background beta blocker use, NYHA classification and exercise capacity were approximately evenly distributed between active and placebo arms.
This double-blind study enrolled 59 individuals with nHCM (Left ventricular outflow tract gradient<30 mmHg; resting or provoked), NYHA Class II or III, and LVEF≥55%. Subjects were randomized 1:1:1 to one of two target plasma drug concentrations (Group 1: ˜200 ng/mL and Group 2: ˜500 ng/mL) or placebo for 16 weeks, followed by an 8-week washout. […] Predefined criteria, including LVEF (LVEF≤45%), guided study drug discontinuation if indicated. Cardiopulmonary exercise testing was performed at baseline and Week 16 to assess the impact on exercise capacity.
Dose adjustments will be based on PK parameters. Assessments include safety, standardized cardiopulmonary exercise testing (CPET) with measurement of peak oxygen consumption, echocardiography to evaluate left ventricular ejection fraction (LVEF) and parameters of diastolic function, symptoms, quality of life, daily step counts, and NT-proBNP at rest and after exercise. In addition, subjects may consent to hypertrophic cardiomyopathy genotyping and pharmacogenetic sampling.
Cardiac Troponin I levels were evaluated on plasma and serum samples of subjects at baseline and at various time points in the trial (Abbott Architect Stat Troponin-I assay (Ref. 2K41)). Cardiac Troponin T levels were evaluated on plasma and serum samples of subjects at baseline and at various time points in the trial (Roche Elecsys Troponin T hs assay) (Ref. 08469873190) performed on a cobas e 801 analyzer). NT-proBNP levels were evaluated on plasma samples using the Roche Elecsys proBNPII assay (Ref. 07027664190) on a cobas e 801 analyzer.
Subjects were randomized via an interactive response system to 3 groups in a 1:1:1 ratio: 2 active treatment groups and 1 matching placebo.
5 mg QD was used as the starting dose for the study. All subjects in the active treatment groups started on 5 mg QD. […] PK modeling was used to guide blinded dose adjustment at the Week 6 visit, based on the plasma concentrations collected at Week 4. Subjects in the placebo group underwent the same assessments in order to preserve the blind. […] Subjects were instructed to take the drug under fasting conditions, at approximately the same time each day, and with 8 ounces of water.
To achieve the target concentration, if a subject's Week 4 concentration was >450 ng/mL, the subject's dose was decreased to 2.5 mg QD; if Week 4 concentration was 110-450 ng/mL, the dose was maintained at 5 mg QD; and if Week 4 concentration was <110 ng/mL, the dose was increased to 10 mg QD.
Subjects were monitored for adverse events (AE), including high blood plasma concentration, systolic dysfunction, QT prolongation, and LVEF decrease. If any of the following thresholds were hit PK 1000 or more, QTcF 500, or LVEF 45%, the subjects were discontinued on drug. Specifically, high blood plasma concentration was defined as blood plasma concentration greater than or equal to 1000 ng/mL; QT prolongation was defined as QTcF greater than or equal to 500 ms; and LVEF shortening was defined as LVEF less than or equal to 45% (including serious adverse event (SAE) for LVEF less than or equal to 30%).
Efficacy and pharmacodynamics assessments were also made. Resting transthoracic echocardiography measurements were taken at Weeks 4, 8, 12 and 16. […]

[1] = Elevated Troponin subgroup, Mean Difference vs placebo
[2] = Elevated Troponin subgroup, mean change from baseline
[3] = Subgroup with Elevated E/e′ at Baseline, Difference mavacamten vs placebo
[4] = Subgroup with Elevated E/e′ at Baseline, pooled, mean change from baseline

In the case of CC(C)n1c(=O)cc(N[C@@H](C)c2ccccc2)[nH]c1=O [mavacamten, (S)-3-Isopropyl-6-((1-phenylethyl)amino)pyrimidine-2, 4(1H,3H)-dione], the “Composite Functional Endpoint: Met endpoint, either type, %” value (“Composite Functional Endpoint … %” for short) (Combined Subgroup (elevated cTnI or E/e′ average >14), Pooled) was 33%, the “Composite Functional Endpoint … %” value (Combined Subgroup, Group 1 ~200 ng/mL) was “(33.3) %” and the “Composite Functional Endpoint … %” value (Combined Subgroup, Group 2 ~500 ng/mL) was “(33.3) %”. For the same compound, the “Clinical KCCQ Summary Score” value [1] was 8.8, the “NYHA Class” value [1] was −0.3 and the “Peak VO2” value [1] was 2.70 mL/min/kg. For the same compound, the “Serum Troponin I (cTnI)” value [1] was -0.083 ng/mL, the “Clinical KCCQ Summary Score” value [2] was 6.9 and the “NYHA Class” value [2] was −0.5. For the same compound, the “Overall KCCQ Summary Score” value [2] was 6.4, the “Serum Troponin I (cTnI)” value [2] was -0.12 ng/mL and the “Clinical KCCQ Summary Score, mean change” value (ITT, Group 1 ~200 ng/mL) was 0.11. The “Lateral e′, mean change” value (ITT, Group 1 ~200 ng/mL) was 0.34 cm/s, the “NYHA Class, mean change” value (ITT, Group 1 ~200 ng/mL) was −0.6 and the “Overall KCCQ Summary Score, mean change” value (ITT, Group 1 ~200 ng/mL) was 0.35. The “Peak VO2, mean change” value (ITT, Group 1 ~200 ng/mL) was 0.36 mL/min/kg, the “Septal e′, mean change” value (ITT, Group 1 ~200 ng/mL) was 0.64 cm/s and the “LVEF, mean change” value (ITT, Group 1 ~200 ng/mL) was −2.30%. For the same compound, the “LVEDV, mean change” value (ITT, Group 2 ~500 ng/mL) was 6.50 mL, the “NYHA Class, mean change” value (ITT, Group 2 ~500 ng/mL) was −0.3 and the “Peak VO2, mean change” value (ITT, Group 2 ~500 ng/mL) was 0.12 mL/min/kg. For the same compound, the “Septal e′, mean change” value (ITT, Group 2 ~500 ng/mL) was 1.60 cm/s, the “Lateral e′, mean change” value (ITT, Pooled) was 0.94 cm/s and the “NYHA Class, mean change” value (ITT, Pooled) was −0.4. For the same compound, the “Peak VO2, mean change” value (ITT, Pooled) was 0.22 mL/min/kg, the “LVEF, mean change” value (ITT, Pooled) was −4.1% and the “Clinical KCCQ Summary Score” value [3] was 4.1. For the same compound, the LVEDVi [3] was 3.9 mL/m^2, the “NYHA Class” value [3] was 0.0 and the “Overall KCCQ Summary Score” value [3] was 0.4. For the same compound, the “Peak VO2” value [3] was 1.9 mL/min/kg, the cTnI [3] was -0.07 ng/mL and the “Clinical KCCQ Summary Score” value [4] was 4.6. The LVEDVi [4] was 2.8 mL/m^2, the “NYHA Class” value [4] was −0.4 and the “Overall KCCQ Summary Score” value [4] was 4.7. The “Peak VO2” value [4] was 1.2 mL/min/kg, the cTnI [4] was -0.09 ng/mL and the “Serious adverse events (SAEs), subjects” value (subjects receiving mavacamten, placebo 21%) was 10%. For the same compound, the “participants with a decrease in LVEF to ≤45%, %” value (weeks 11-12, active treatment) was 12.5%.
